According to PMC12062876, “Efficient constitution of a library of rotenoid analogs active against Trypanosoma cruzi from a digitalized plant extract collection” (RSC Advances, 2025):

Legend:
[1] = system: L6 cells (rat skeletal myoblast); assay: Cytotoxicity assay: L-6 cells; assay type: cell-based; settings: means of two independent assays
Protocol: The pure compounds cytotoxicity was assessed against L6 cells as described in ref. [27].

[2] = system: T. cruzi amastigotes; assay: Activity against intracellular T. cruzi amastigotes; assay type: cell-based, Trypanosoma cruzi; settings: intracellular amastigotes grown in rat L6 cells; means of two independent assays; read-out: IC50 T. cruzi amastigotes
Text: The bioactivity of isolated compounds against intracellular T. cruzi amastigotes grown in rat L6 […] is presented in Table 1. […] Rotenone and deguelin are known to be strong mitochondrial complex I (also known as NADH:ubiquinone oxidoreductase) inhibitors,[43–45] while different activities between closely related rotenoids (rotenone, 5′-α-epirotenone, and 5′-β-epirotenone) has already been shown. […] The variation in activity observed on our rapidly generated series of structural analogs points in the same direction. As shown in Fig. 3 and Table 1, the cyclic and bent form of the rotenoid at the B/C ring junction is essential for activity, since compounds 40 and 41 were not active.
The pure compounds activity was assessed against T. cruzi amastigotes as described in ref. [27].

medicarpin [Compound 15] was tested, and the IC50 [1] was 226 µM and the IC50 [2] was 202 µM.
